According to patent US20080261994A1, “CYCLOPROPANE COMPOUNDS AND PHARMACEUTICAL USE THEREOF” (Japan Tobacco Inc., priority 2003, published 2008):
Where two headings read alike, the source gives them in different places.

How the values were obtained:
Format in all cases: biochemical
MMP-1 = biological target: T1, MMP-1 (Homo sapiens, UniProt P03956); test: MMP-1 inhibitory action (Type I collagen Activity Measurement kit, FITC-labeled collagen type I)
T1 sequence (P03956 100-469): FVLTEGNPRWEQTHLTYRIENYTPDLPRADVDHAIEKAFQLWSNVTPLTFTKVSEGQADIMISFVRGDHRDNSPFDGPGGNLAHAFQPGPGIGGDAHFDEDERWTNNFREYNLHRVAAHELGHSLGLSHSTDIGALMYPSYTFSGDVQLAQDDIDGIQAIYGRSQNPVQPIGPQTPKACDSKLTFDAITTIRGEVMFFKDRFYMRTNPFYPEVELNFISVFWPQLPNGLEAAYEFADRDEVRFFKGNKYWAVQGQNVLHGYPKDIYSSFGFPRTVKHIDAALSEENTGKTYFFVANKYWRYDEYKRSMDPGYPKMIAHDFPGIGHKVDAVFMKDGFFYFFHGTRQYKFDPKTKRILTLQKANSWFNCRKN

Recombinant Human MMP-13 = biological target: T2, Recombinant Human MMP-13 (Homo sapiens, UniProt P45452); test: MMP-13 inhibitory activity (MMP-13 specific fluorescent substrate with quencher)
T2 construct: purchased R&D systems 511-MM
In short: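 Recombinant human MMP-13 with test compound, reaction started with quenched fluorogenic peptide 7-MCA-Pro-CHA-Gly-NVal-His-Ala-DPA in Tris-HCl buffer, 1 h at 25 °C, stopped with acetic acid. Fluorescence at Ex 325/Em 405 nm; % inhibition versus enzyme-free and inhibitor-free wells, reported as IC50 (μM).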

aggrecanase-1 = biological target: T3, aggrecanase-1 (Homo sapiens, UniProt O75173); test: Aggrecanase-1 inhibitory action (Particle Assay, GAG release from aggrecan-containing polyacrylamide particles)
T3 sequence (O75173 213-837): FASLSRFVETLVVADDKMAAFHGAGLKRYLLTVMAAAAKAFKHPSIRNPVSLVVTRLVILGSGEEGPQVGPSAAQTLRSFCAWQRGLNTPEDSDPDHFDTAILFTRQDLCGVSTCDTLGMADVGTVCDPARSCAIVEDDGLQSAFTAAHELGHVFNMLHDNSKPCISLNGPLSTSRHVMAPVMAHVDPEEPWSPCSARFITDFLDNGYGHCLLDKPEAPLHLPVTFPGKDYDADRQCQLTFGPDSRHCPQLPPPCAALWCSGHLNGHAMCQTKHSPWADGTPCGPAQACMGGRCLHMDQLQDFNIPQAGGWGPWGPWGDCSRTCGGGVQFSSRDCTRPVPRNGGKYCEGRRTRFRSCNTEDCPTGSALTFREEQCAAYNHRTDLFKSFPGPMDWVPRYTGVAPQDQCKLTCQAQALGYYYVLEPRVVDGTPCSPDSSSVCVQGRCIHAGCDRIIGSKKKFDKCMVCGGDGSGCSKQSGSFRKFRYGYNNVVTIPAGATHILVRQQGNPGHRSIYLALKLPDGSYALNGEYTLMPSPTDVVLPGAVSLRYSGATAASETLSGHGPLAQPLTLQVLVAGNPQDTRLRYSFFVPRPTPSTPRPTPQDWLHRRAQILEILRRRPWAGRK
In short: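 Enzyme and compound incubated with aggrecan-containing polyacrylamide particles in Tris-HCl buffer at 37° C for 15 h. Released GAG in supernatant measured with 1,9-dimethylmethylene blue at 595 nm against chondroitin sulfate standard; % inhibition from enzyme-free and inhibitor-free wells, reported as TC50 (μM).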

[1] = MMP-1 inhibitory action, FITC-labeled collagen type I, 37° C. for 3 hr, read-out: IC50 MMP1 (Experimental Example 2)
[2] = Recombinant Human MMP-13, fluorescent substrate, 25° C. for 1 h, read-out: IC50 MMP13 (Experimental Example 3)
[3] = aggrecanase-1 inhibitory action, read-out: IC50 AG1 (Experimental Example 1)
[4] = Experimental Example 2, read-out: IC50 MMP1
[5] = Experimental Example 3, read-out: IC50 MMP13
[6] = Experimental Example 1, read-out: IC50 AG1

Structure (SMILES) | IC50 (MMP-1; [1]) [nM] | IC50 (Recombinant Human MMP-13; [2]) [nM] | IC50 (aggrecanase-1; [3]) [nM] | IC50 (MMP-1; [4]) [nM] | IC50 (Recombinant Human MMP-13; [5]) [nM] | IC50 (aggrecanase-1; [6]) [nM]
O=C(O)C1(NS(=O)(=O)N2CCc3c([nH]c4ccccc34)C2)CC1c1ccccc1 (stereo not drawn) [Example 2-125] | ≥ 10000 | ≥ 10000 | ≥ 10000 |  |  | 
O=C(O)[C@]1(NS(=O)(=O)c2ccc3c(c2)Cc2cc(Cl)ccc2-3)C[C@@H]1c1ccccc1 [Example 2-142] | ≥ 1000 | < 1000 | < 100 |  |  | 
CN(C)c1cc(-c2ccc(S(=O)(=O)N[C@@]3(C(=O)O)C[C@]3(C)c3ccccc3)s2)ccc1Cl [Example 2-488] |  |  |  | ≥ 10000 | ≥ 1000 | ≥ 1000
O=C(O)[C@@]1(NS(=O)(=O)c2ccc(-c3ccc(Cl)cc3)s2)C[C@H]1c1cccc(Br)c1 [Example 2-150] | ≥ 1000 | < 1000 | < 1000 |  |  | 
CC1[C@H](c2ccccc2)[C@]1(NS(=O)(=O)c1ccc2nc(-c3ccccc3)cn2c1)C(=O)O (stereo partly drawn) [Example 2-622] |  |  |  | ≥ 1000 | < 1000 | ≥ 1000
C[C@]1(c2ccccc2)C[C@@]1(NS(=O)(=O)c1ccc(-c2ccc(F)c(F)c2)s1)C(=O)O [Example 2-581] |  |  |  | ≥ 1000 | < 1000 | < 100
O=C(NCC1(c2ccccc2)CC1(NS(=O)(=O)c1ccc(-c2ccc(Cl)cc2)s1)C(=O)O)C1CC1 (stereo not drawn) [Example 2-379] |  |  |  | ≥ 1000 | < 1000 | < 1000
O=C(O)C1(NS(=O)(=O)c2ccc(OCc3ccc(Cl)cc3Cl)cc2)C2CCc3ccccc3C21 (stereo not drawn) [Example 2-355] |  |  |  | ≥ 1000 | < 1000 | ≥ 1000
CC(=O)Nc1cccc(-c2ccc(S(=O)(=O)N[C@@]3(C(=O)O)C[C@]3(C)c3ccccc3)s2)c1 [Example 2-480] |  |  |  | < 1000 | < 100 | < 1000
CC(=O)c1ccc(S(=O)(=O)N[C@@]2(C(=O)O)C(C)[C@@H]2c2ccccc2)s1 (stereo partly drawn) [Example 2-425] |  |  |  | ≥ 10000 | ≥ 1000 | ≥ 10000
O=C(O)[C@]1(NS(=O)(=O)c2ccc(-c3cc(C(F)(F)F)on3)s2)C[C@@H]1c1cccc(Br)c1 [Example 2-169] | ≥ 1000 | < 100 | < 100 |  |  | 
O=C(O)[C@]1(NS(=O)(=O)c2ccc(-c3ccc(Cl)nc3)s2)C[C@@H]1c1ccccc1 [Example 2-27] | ≥ 10000 | < 1000 | < 1000 |  |  | 
O=C(O)C1(NS(=O)(=O)c2ccc(-c3cc(C(F)(F)F)on3)s2)C2CCC(O)c3ccccc3C21 (stereo not drawn) [Example 2-437] |  |  |  | < 1000 | < 100 | < 100
O=C(O)C1(NS(=O)(=O)c2ccc3c(c2)Cc2cc(Cl)ccc2-3)CC1c1ccccc1 (stereo not drawn) [Example 1-94] | ≥ 1000 | < 100 | < 100 |  |  | 
O=C(O)Cc1cccc(C2CC2(NS(=O)(=O)c2ccc(-c3ccc(Cl)cc3)s2)C(=O)O)c1 (stereo not drawn) [Example 2-181] | ≥ 1000 | < 100 | < 100 |  |  | 
O=C(O)C1(NS(=O)(=O)c2ccc(-c3ccc(Cl)cc3)s2)CC1c1ccccc1OCc1ccccn1 (stereo not drawn) [Example 2-23] | ≥ 10000 | < 1000 | < 1000 |  |  | 
Nc1cccc(C2CC2(NS(=O)(=O)c2ccc(-c3cc(C(F)(F)F)on3)s2)C(=O)O)c1 (stereo not drawn) [Example 2-201] | ≥ 10000 | < 100 | < 1000 |  |  | 
C[C@]1(c2ccc(Cl)cc2)C[C@@]1(NS(=O)(=O)c1ccc(-c2cc(C(F)(F)F)on2)s1)C(=O)O [Example 2-620] |  |  |  | < 1000 | < 100 | < 100
C[C@]1(c2ccccc2)C[C@@]1(NS(=O)(=O)c1ccc(-c2ccc(F)cn2)s1)C(=O)O [Example 2-416] |  |  |  | ≥ 1000 | < 1000 | < 1000
CS(=O)(=O)CC1(c2ccccc2)CC1(NS(=O)(=O)c1ccc(-c2ccc(Cl)cc2)s1)C(=O)O (stereo not drawn) [Example 2-440] |  |  |  | ≥ 10000 | < 1000 | < 1000
CC(C)(C)C1CC1(NS(=O)(=O)c1ccc(-c2ccc(Cl)cc2)s1)C(=O)O (stereo not drawn) [Example 2-62] | ≥ 10000 | < 1000 | < 1000 |  |  | 
COCCN1CCN(S(=O)(=O)N[C@@]2(C(=O)O)C(C)[C@@H]2c2ccccc2)CC1 (stereo partly drawn) [Example 2-534] |  |  |  | ≥ 1000 | ≥ 1000 | ≥ 1000

Results, then the compound that gave them:

IC50 (MMP-1; [1]) [nM] | IC50 (Recombinant Human MMP-13; [2]) [nM] | IC50 (aggrecanase-1; [3]) [nM] | IC50 (MMP-1; [4]) [nM] | IC50 (Recombinant Human MMP-13; [5]) [nM] | IC50 (aggrecanase-1; [6]) [nM] | Structure (SMILES)
 |  |  | < 1000 | < 100 | < 100 | NC(=O)Cc1ccc([C@@H]2C[C@]2(NS(=O)(=O)c2ccc(-c3cc(C(F)(F)F)on3)s2)C(=O)O)cc1 [Example 2-292]
≥ 1000 | < 100 | < 100 |  |  |  | O=C(O)C1(NS(=O)(=O)c2ccc(-c3ccc(Cl)cc3)s2)CC1c1cccc(CO)c1 (stereo not drawn) [Example 1-134]
≥ 10000 | < 1000 | < 1000 |  |  |  | O=C(O)C1(NS(=O)(=O)c2ccc(-c3ccc(Cl)cc3)cc2)CC1c1cccc(-c2ccccc2)c1 (stereo not drawn) [Example 1-26]
< 1000 | < 100 | < 100 |  |  |  | C[C@]1(c2ccccc2)C[C@@]1(NS(=O)(=O)c1ccc2c(c1)Cc1cc(Br)ccc1-2)C(=O)O [Example 2-100]
≥ 1000 | < 1000 | < 1000 |  |  |  | CN(C)C(=O)c1ccc(C2CC2(NS(=O)(=O)c2ccc(-c3cc(C(F)(F)F)on3)s2)C(=O)O)cc1 (stereo not drawn) [Example 2-266]
 |  |  | ≥ 1000 | ≥ 1000 | ≥ 1000 | CC1[C@H](c2ccccc2)[C@]1(NS(=O)(=O)c1cn2cc(Cn3cc(Cl)cn3)nc2s1)C(=O)O (stereo partly drawn) [Example 2-520]
 |  |  | ≥ 1000 | < 100 | ≥ 1000 | CC1[C@H](c2ccccc2)[C@]1(NS(=O)(=O)c1ccc(-n2cc(C(=O)O)cn2)s1)C(=O)O (stereo partly drawn) [Example 2-522]
 |  |  | < 1000 | < 1000 | < 100 | CC1(c2ccc(Cl)cc2)CC1(NS(=O)(=O)c1ccc(-c2cc(C(F)(F)F)on2)s1)C(=O)O (stereo not drawn) [Example 2-608]
 |  |  | ≥ 1000 | < 100 | ≥ 1000 | CC1[C@H](c2ccccc2)[C@]1(NS(=O)(=O)c1ccc(-c2cc(C(F)(F)F)on2)s1)C(=O)NO (stereo partly drawn) [Example 2-323]
≥ 10000 | < 1000 | < 1000 |  |  |  | CN1CCN(CCOc2cccc(C3CC3(NS(=O)(=O)c3ccc(-c4ccc(Cl)cc4)s3)C(=O)O)c2)CC1 (stereo not drawn) [Example 2-198]
 |  |  | ≥ 1000 | < 1000 | ≥ 1000 | CC1[C@H](c2ccccc2)[C@]1(NS(=O)(=O)N1CCC(Oc2ccc(Cl)cc2)C1)C(=O)O (stereo partly drawn) [Example 2-500]
 |  |  | < 1000 | < 100 | < 100 | CC1[C@H](c2ccccc2)[C@]1(NS(=O)(=O)c1ccc(-c2ccc(Cl)cn2)s1)C(=O)O (stereo partly drawn) [Example 2-366]
≥ 10000 | < 1000 | < 100 |  |  |  | CC(C)(CO)NC(=O)c1ccccc1C1CC1(NS(=O)(=O)c1ccc(-c2ccc(Cl)cc2)s1)C(=O)O (stereo not drawn) [Example 2-78]
≥ 1000 | < 100 | < 100 |  |  |  | O=C(O)C1(NS(=O)(=O)c2ccc3c(c2)oc2cc(Cl)ccc23)CC1c1ccccc1 (stereo not drawn) [Example 1-122]
 |  |  | ≥ 1000 | < 1000 | < 1000 | COc1cc(-c2ccc(S(=O)(=O)N[C@@]3(C(=O)O)C[C@]3(C)c3ccccc3)s2)ccc1Cl [Example 2-516]
 |  |  | < 1000 | < 100 | < 100 | O=C(O)C1(NS(=O)(=O)c2ccc(-c3ccc(Cl)cc3)s2)C2CCC(O)c3ccccc3C21 (stereo not drawn) [Example 2-411]
≥ 1000 | < 100 | < 100 |  |  |  | O=C(O)[C@]1(NS(=O)(=O)c2ccc(-c3ccc(Cl)cc3)s2)C[C@@H]1c1ccccc1CO [Example 2-206]
≥ 10000 | ≥ 1000 | ≥ 1000 |  |  |  | O=C(O)C1(NS(=O)(=O)N2CCn3c(cc4cc(Cl)ccc43)C2)CC1c1ccccc1 (stereo not drawn) [Example 2-156]
